The values below come from patent US11033562B2, “Carbohydrate derivatives used for surface modification of immune cells, use thereof and method thereof” (Xiamen Nuokangde Biological Technology Co., Ltd., priority 2018, dated 2021).

For this assay, the system named is CD22-fc. As to the kind of experiment: Analysis of CD22 ligand on surfaces of NK-92 cells (CD22-fc binding, flow cytometry and confocal). Type of assay: cell-based. Particulars: NK-92 cells incubated with the sialic acid derivative; FIGS. 7A and 7B. Here is the method: Culturing ATCC (American Type Culture Collection)-derived NK-92 (ATCC® CRL2407™) cells (also known as NK-92 cell lines) on a fourth alpha-MEM growth medium (comprising 12.5% (v/v) newborn bovine serum, 12.5% (v/v) horse serum, 100 U/ml recombinant IL-2) in an incubator with 5% (v/v) CO2 atmosphere at 37° C., then replacing the fourth alpha-MEM growth medium with a fifth alpha-MEM growth medium (comprising 2 mMPB-sia), continuing to culture for 48 hours, and washing for three times to obtain MPB-sia modified NK-92 cells, which is referred to as MsNK-92 cells.
Washing MPB-sia or BPC-sia modified NK-92 cells with PBS buffer for three times, adding 100 μL, PBS, adding 1 μg CD22-fc to obtain a first mixture, then culturing the first mixture on ice for 30 minutes, washing three times with PBS buffer, then adding anti-CD22-PE to obtain a second mixture, culturing the second mixture on ice for 30 minutes, washing three times, then collecting cells, quantifying the extent of CD22 binding by flow cytometry analysis, and imaging by confocal microscopy.
Increasing the concentration of MPB-sia enhanced the levels of CD22 ligand expression on cell surfaces reaching a maximum at 4 mM of MPB-sia at 24 hours (FIG. 8A). […] Next, the persistence of CD22 ligands on engineered NK-92 cells was analyzed. […]
In general terms: In flow cytometry, cells or beads pass a laser one at a time.

As to `CC(=O)N[C@H]1[C@H]([C@H](O)[C@H](O)CO)OC(O)(C(=O)O)C[C@@H]1O` (stereo partly shown) [sialic acid (sia), sialic acid (N-acetylneuraminic acid)], the “CD22 binding to NK-92 cells (flow cytometry)” value was “little binding with CD22 over the background”.
